Test results: article PMC8159385, “Chemical synthesis of human syndecan-4 glycopeptide bearing O-, N-sulfation and multiple aspartic acids for probing impacts of the glycan chain and the core peptide on biological functions” (Chemical Science, 2020)
Where two headings read alike, the source gives them in different places. Residues, ends and D or L forms follow the SMILES beside them. *: point of attachment. X1 = O=C(O)[C@H]1O[C@@H](O[C@H]2[C@@H](O)[C@@H](CO)O[C@@H](O[C@H]3[C@@H](O)[C@@H](CO)O[C@@H](O[C@@H]4CO[C@@H](*)[C@H](O)[C@H]4O)[C@@H]3O)[C@@H]2O)[C@H](O)[C@@H](O)[C@@H]1O[C@H]1O[C@H](COS(=O)(=O)O)[C@@H](O)[C@H](O)[C@H]1NS(=O)(=O)O; Biotin = O=C1N[C@H]2[C@H](CS[C@H]2CCCCC(=O)*)N1; Ahx = NCCCCCC(=O)O

Assays:
[1] = molecular target: T1, heparanase (Homo sapiens, UniProt Q9Y251); assay: Fondaparinux colorimetric heparanase assay; assay type: biochemical; conditions: for inhibition at 3.3 µM: 3.3 μM compound; for inhibition at 3.3 µM / inhibition at 10 µM / inhibition at 33 µM: heparanase 5 nM; for inhibition at 10 µM: 10 μM compound; for inhibition at 33 µM: 33 μM compound
T1 sequence (Q9Y251 158-543 limits assumed): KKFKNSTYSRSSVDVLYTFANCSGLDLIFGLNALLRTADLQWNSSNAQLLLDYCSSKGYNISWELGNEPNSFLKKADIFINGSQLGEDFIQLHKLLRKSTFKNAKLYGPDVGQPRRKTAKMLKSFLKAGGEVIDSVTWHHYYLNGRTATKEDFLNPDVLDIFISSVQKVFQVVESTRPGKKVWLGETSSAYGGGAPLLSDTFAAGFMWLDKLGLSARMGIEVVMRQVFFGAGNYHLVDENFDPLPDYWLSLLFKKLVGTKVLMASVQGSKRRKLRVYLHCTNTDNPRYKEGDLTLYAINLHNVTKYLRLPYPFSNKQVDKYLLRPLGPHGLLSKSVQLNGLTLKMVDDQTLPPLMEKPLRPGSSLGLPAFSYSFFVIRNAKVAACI
T1 sequence (Q9Y251 36-109 limits assumed): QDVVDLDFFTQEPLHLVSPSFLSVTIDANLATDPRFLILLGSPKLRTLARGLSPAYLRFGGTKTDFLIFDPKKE
Source text: With the synthetic glycopeptide and the corresponding peptide and glycan in hand, we began to probe the impacts of glycan and peptide on biological functions of the glycopeptide. The endoglycosidase heparanase is an important enzyme for HS metabolism, which can cleave HS polysaccharide chains at the cell surface or in the extracellular matrix.[63] Heparanase activities are important for a variety of biological processes, including tumor metastasis and cell proliferation.[64] […]
General procedure for heparanase assays
Fondaparinux colorimetric heparanase assays were carried out in 96 well microplates (NEST Scientific 96 Well Cell Culture Plate, 701002) pre-treated with a solution of 4% BSA in phosphate-buffered saline containing 0.05% Tween 20 (PBST) for 2 h at 37 °C. A ssay solutions (100 ul) contained sodium acetate buffer (40 mM, pH 5.0) and fondaparinux ([…], MedChemExpress), heparanase (5 nM) and varying concentrations of compounds of interests or heparin. The mixture was kept at 37 °C for 20 h, which was followed by addition of a solution of WST-1 (100 μL of 1.69 mM WST-1 in 0.1 M NaOH) and incubation at 60 °C for 1 h after which the absorbance at 584 nm was measured (Fluostar Optima plate reader, BMG Labtech). […]

[2] = molecular target: T2, IL-8 (Homo sapiens, UniProt P10145); assay: BLI binding assay, biotinylated compounds on streptavidin biosensors, IL-8; conditions: Table 2, read-out: K D IL-8
T2 sequence (P10145 21-99): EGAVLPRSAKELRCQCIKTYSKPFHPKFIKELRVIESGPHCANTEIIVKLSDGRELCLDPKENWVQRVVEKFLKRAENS
Protocol: (§1) Cytokines and growth factors are important proteins modulating cellular functions, many of which are known to interact with HS.[1,8,34,67] To probe the impacts of the glycan and the core peptide, the binding of glycopeptide 1, pentasaccharide 30, and peptide 31 to several representative growth factors and cytokines including fibroblast growth factor 2 (FGF-2), interleukin 8 (IL-8) and chemokine (C–C motif ligand 13 (CCL-13)) respectively was tested using the biolayer interferometry (BLI). The biotinylated glycopeptide 1, pentasaccharide 30, and peptide 31 were immobilized on streptavidin coated biosensors, and their dissociation constants (KD) with the proteins were measured (Table 2). […]
(§2) General procedure for biotinylation
(§3) To a solution of free amine compounds in DMSO/H 2O (1/1, 0.5 ml) was added […]
(§4) The reaction was stirred at room temperature for 5 hours. Then the mixture was loaded onto a G-15 Sephadex column for purification. […] General procedure for BLI binding assay
(§5) The binding assay was performed on the Octet K2 System (Pall ForteBio). The biotinylated […]
(§6) compounds were absorbed to streptavidin (SA) sensor for 2 min. The sensor was then balanced in the assay buffer (PBS containing 0.005% P20) and dipped into protein solution in assay buffer at different concentration. After 5 min of association, the sensor was brought back to the previous assay

[3] = molecular target: FGF-2 (Homo sapiens, UniProt P09038); assay: BLI binding assay, biotinylated compounds on streptavidin biosensors, FGF-2
Protocol: as §1, §2
To a solution of free amine compounds in DMSO/H 2O (1/1, 0.5 ml) was added sulfo-NHS-LC-Biotin (5 equiv) and DIPEA (pH ~ 8.5). The reaction was stirred at room temperature for 5 hours. Then the mixture was loaded onto a G-15 Sephadex column for purification. […] General procedure for BLI binding assay
as §5
compounds were absorbed to streptavidin (SA) sensor for 2 min. The sensor was then balanced in the assay buffer (PBS containing 0.005% P20) and dipped into protein solution in assay buffer at different concentration. After 5 min of association, the sensor was brought back to the previous assay buffer for a 5 min dissociation step. At the end of the assay, the sensor was regenerated in 2 M NaCl to remove the bound protein. Each measurement was repeated 3 times on the same sensor. The control assay was done with another sensor loaded with saturated biotin solution. […]
MD trajectories were generated from the protein system without any ligand to relax the structure and minimize the pocket restrictions caused by the present ligand in the structure.
The geometries of compounds 2, 28 and 29 were optimized using the Gaussian 16 program package. The optimizations were performed using the AM1 method.1 The obtained Mulliken charges were used with the antechamber module of Amber 16 in the generation of parameters. The systems were prepared using the Leap module of AmberTools162 under the AMBER ff14SB and GAFF force fields. Each enzyme complex was solvated in a 14 Å cube of TIP4P-Ew water beyond the solute and 100 mM sodium chloride. The systems were relaxed under NVT conditions over six minimization procedures with decreasing restraints on the protein of 500.0, 200.0, 20.0, 10.0, 5.0 kcal/(mol Å2) to no restraints. The systems were then heated to 300 K over 30 ps. Atomistic molecular dynamics simulations were performed for 30 ns at 300 K and 1 atm using AMBER 16. The SHAKE algorithm constrained bonds involving hydrogen. 3 The trajectories were produced using Langevin dynamics and the pressure of the system was regulated with isotropic position scaling. Long -range electrostatic effects were modeled using the particle-mesh Ewald method with a 10 Å cutoff.
The produced trajectories were analyzed using AMBER 16 and visualized with MOE and the UCSF Chimera package. Free energy of binding was calculated for every picosecond using the Poisson Boltzmann model form the MMPBSA.py module of AmberTools and AMBER 16. The relative free energy trends between models were compared so solute entropy was neglected.
Following the general procedure for solid-phase peptide synthesis, peptide 29 was obtained in 52% […]
RP-HPLC retention time, tR = 24.4 min.
Following the general procedure for biotinylation, peptide 31 was obtained from 12-mer peptide 29 in 56% yield. The overall yield based on resin loading is 29%. HRMS: C65H103N15O28S [M - 2H]2- […]
Figure S1: Binding of synthetic compounds 1, 31 and 30 to protein FGF2 as measured by BLI (a-c respectively). The biotinylated compounds (2 μM ) were immobilized on streptavidin coated biosensors, and FGF2 was captured on biosensors with six concentrations at 291 nM, 145 nM, […], 39 nM, 20 nM, 10 nM. Fitting curves were shown in red lines. […]

[4] = molecular target: CCL-13 (Homo sapiens, UniProt Q99616); assay: BLI binding assay, biotinylated compounds on streptavidin biosensors, CCL-13; set-up: key to K D CCL-13: Inactive denotes a KD value greater than 400 μM; conditions: for Kd: Table 2, read-out: K D CCL-13
Protocol: as §1, §2, §3, §4, §5, §6

[5] = BLI, Table 2, read-out: K D FGF2
[6] = Table S2, KD values from BLI measurements, read-out: Experimental KD

Sequence of CCL-13 (Q99616 17-98, species assumed): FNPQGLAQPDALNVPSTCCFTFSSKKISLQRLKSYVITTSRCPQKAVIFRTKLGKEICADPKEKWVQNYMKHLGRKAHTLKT
Sequence of FGF-2 (P09038 143-288, species assumed): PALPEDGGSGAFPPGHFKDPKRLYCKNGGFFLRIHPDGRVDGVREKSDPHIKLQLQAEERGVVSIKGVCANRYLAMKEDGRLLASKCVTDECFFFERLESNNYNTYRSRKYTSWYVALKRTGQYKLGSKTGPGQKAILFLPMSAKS

inhibition at 3.3 µM [1] [%]	inhibition at 10 µM [1] [%]	inhibition at 33 µM [1] [%]	Kd [2] [nM]	Kd [3, 5] [nM]	KD with CCL-13 [4]	K D CCL-13 ([4]; Table 2)	Kd [3, 6] [nM]	FGF-2 binding, fold higher than pentasaccharide 30 and peptide 31 ([3]; ratio of KD values)	Kd [4] [nM]	SMILES	inhibition of heparanase at concentrations up to 100 μM [1]
< 0	32	61	39	14.5	did not exhibit much binding	Inactive	–	–	–	O=C(CCCCC1SCC2NC(=O)NC21)NCCCCCC(=O)NCCCOC1OCC(OC2OC(CO)C(O)C(OC3OC(CO)C(O)C(OC4OC(C(=O)O)C(OC5OC(COS(=O)(=O)O)C(O)C(O)C5NS(=O)(=O)O)C(O)C4O)C3O)C2O)C(O)C1O (stereo not drawn) [Compound 30]	–
–	–	–	–	–	–	–	17	–	–	CC(C)C[C@H](NC(=O)[C@H](CC(=O)O)NC(=O)CNC(=O)[C@H](CO)NC(=O)CNC(=O)[C@H](CO)NC(=O)[C@@H](N)CC(C)C)C(=O)N[C@@H](CC(=O)O)C(=O)N[C@@H](CC(=O)O)C(=O)N[C@@H](CC(C)C)C(=O)N[C@@H](CCC(=O)O)C(=O)N[C@@H](CC(=O)O)C(=O)O [Compound 29] (H-LSGSGDLDDLED-OH)	–
–	–	–	–	–	–	–	14.5	–	–	NCCCO[C@@H]1OC[C@@H](O[C@@H]2O[C@H](CO)[C@H](O)[C@H](O[C@@H]3O[C@H](CO)[C@H](O)[C@H](O[C@@H]4O[C@H](C(=O)O)[C@@H](O[C@H]5O[C@H](COS(=O)(=O)O)[C@@H](O)[C@H](O)[C@H]5NS(=O)(=O)O)[C@H](O)[C@H]4O)[C@H]3O)[C@H]2O)[C@H](O)[C@H]1O [Compound 28]	–
< 0	< 0	< 0	28	5	–	–	–	about 3 fold	498	CC(C)C[C@H](NC(=O)CCCCCNC(=O)CCCC[C@@H]1SC[C@@H]2NC(=O)N[C@@H]21)C(=O)N[C@@H](CO)C(=O)NCC(=O)N[C@@H](CO[C@@H]1OC[C@@H](O[C@@H]2O[C@H](CO)[C@H](O)[C@H](O[C@@H]3O[C@H](CO)[C@H](O)[C@H](O[C@@H]4O[C@H](C(=O)O)[C@@H](O[C@H]5O[C@H](COS(=O)(=O)O)[C@@H](O)[C@H](O)[C@H]5NS(=O)(=O)O)[C@H](O)[C@H]4O)[C@H]3O)[C@H]2O)[C@H](O)[C@H]1O)C(=O)NCC(=O)N[C@@H](CC(=O)O)C(=O)N[C@@H](CC(C)C)C(=O)N[C@@H](CC(=O)O)C(=O)N[C@@H](CC(=O)O)C(=O)N[C@@H](CC(C)C)C(=O)N[C@@H](CCC(=O)O)C(=O)N[C@@H](CC(=O)O)C(=O)O [Compound 1] ({Biotin-Ahx}-LSGS(X1)GDLDDLED-OH)	neither peptide 31 nor glycopeptide 1 were able to inhibit heparanase
< 0	< 0	< 0	75	17	–	–	–	–	92	CC(C)C[C@H](NC(=O)CCCCCNC(=O)CCCC[C@@H]1SC[C@@H]2NC(=O)N[C@@H]21)C(=O)N[C@@H](CO)C(=O)NCC(=O)N[C@@H](CO)C(=O)NCC(=O)N[C@@H](CC(=O)O)C(=O)N[C@@H](CC(C)C)C(=O)N[C@@H](CC(=O)O)C(=O)N[C@@H](CC(=O)O)C(=O)N[C@@H](CC(C)C)C(=O)N[C@@H](CCC(=O)O)C(=O)N[C@@H](CC(=O)O)C(=O)O [Compound 31] ({Biotin-Ahx}-LSGSGDLDDLED-OH; N-terminus and C-terminus assumed)	neither peptide 31 nor glycopeptide 1 were able to inhibit heparanase
